Laboratory results: patent EP1330254B1, “TREATMENT OF CANCERS BY APLIDINE IN CONJUNCTION WITH CARNITINE OR ACETYLCARNITINE” (priority 2000, dated 2002)
Like-named read-outs stand apart in the source and are kept apart here. Starred links: 1 amine or outer side, 2 acyl side, 3 side chain; linkers in the order of their positions; H or OH if unused. Positions of bridges follow the written chain, without caps; N, C: chain ends. Non-standard residues stand in square brackets, D forms with d. Residues, ends and D or L forms follow the SMILES beside them. *: point of attachment. X1 = CC[C@H](C)[C@@H](N[*:1])[C@@H](O)CC(=O)O[C@H](C(=O)[C@H](C)C(=O)[*:2])C(C)C; NMeY = CN[C@@H](Cc1ccc(O)cc1)C(=O)O; dNMeL = CN[C@H](CC(C)C)C(=O)O; Pyruvoyl = CC(=O)C(=O)*

What was measured:
[1] = tested on: gene (FLT1) encoding the receptor of the Vascular Endothelial Growth Factor (VEGF); experiment: inhibition of gene expression; type: cell-based
[2] = tested on: VEGF protein; experiment: VEGF production by tumour cells; type: cell-based
[3] = tested on: human bladder cancer; experiment: bladder cancer animal models; type: in vivo
[4] = Phase I dosing regimes with and without carnitine (MTD, DLT, RD); type: in vivo, human; design: recommended dose, RD: unit not given here
Text: The Recommended Dose (RD) is the highest dose which can be safely administered to a patient producing tolerable, manageable and reversibly toxicity according to the Common Toxicity Criteria established by the National Cancer Institute, (USA) with no more than 2 out of 6 patients presenting any dose limiting toxicities (DLT). Guidelines for cancer therapy frequently call for administration of chemotherapeutic agents at the highest safe dose at which toxicity is manageable in order to achieve maximum efficacy (DeVita, V.T. Jr., Hellman, S. and Rosenberg, S.A., Cancer: Principles and Practice of Oncology, 3rd ed., 1989, Lipincott, Philadelphia).
DLTs for aplidine using this method of treatment were determined in clinical studies. These studies established a recommended dose level for differing kinds of dosing protocols.

[5] = Phase I study, 24h continuous infusion every other week: pharmacokinetics; type: in vivo, human; conditions: for half-life: human, iv
Protocol: (§1) A phase I and pharmacokinetic study of aplidine, given as a 24h continuous infusion every other week in patients with solid tumours and non-Hodgkin lymphoma

[6] = tested on: solid tumours and non-Hodgkin lymphoma; experiment: Phase I study, 24h continuous infusion every other week: antitumour activity; type: in vivo, human; conditions: patients
Protocol: as §1

[7] = Phase I studies: features of aplidine myotoxicity; type: in vivo, human
Text: The presentation is variable among patients. Mild cases have muscle cramps (at doses from 3200 mcg/m2 every 2 weeks), while in more severe cases the symptoms are associated to reversible increases in creatin-kinase (CK) reaching up to grade 3. In the dose-limiting cases there is weakness of proximal distribution. The effect has a delayed onset, appearing after 3 to 8 (median 4) infusions of the drug.

[8] = L-carnitine as myoprotector in aplidine patients (study APL-A-003-98); type: in vivo, human; conditions: every second week, 24-hour infusion, with L-carnitine 4.5 g/day or 0.1mg/kg
Protocol: More generally, the invention involves the use of a muscle protector in conjunction with aplidine therapy. We have found in particular that carnitine is beneficial in treating myotoxicity that is associated with chemotherapy with the experimental drug aplidine. […] When L-carnitine 4.5 g/day was added to the therapy (at doses of 1.5 g three times daily), or […] (at doses of […] 3 times daily) patients were able to tolerate doses of aplidine up to 6000 mcg/m 2 every second week. […] Therefore, muscle protectors such as L-carnitine is a useful myoprotector for patients being treated with aplidine or an aplidine analogue.
L-carnitine at a dose of 1.5 grams 3 times per day or 0.033 g/kg 3 times per day was started in all patients of study APL-A-003-98.
The dose may be decreased to manage the above effects.

[9] = tested on: MDA-MB231; conditions: aplidine 50 nmol/L; cited from earlier work
[10] = tested on: MCF-7; conditions: aplidine 50 nmol/L; cited from earlier work
[11] = tested on: CT-1; conditions: CT-1 epithelial-like cell line; cited from earlier work
[12] = tested on: CT-2; conditions: CT-2 epithelial-like cell line; cited from earlier work
[13] = tested on: HT-29; conditions: HT-29 human colon cancer cell line; cited from earlier work
[14] = target: T1, ornithine decarboxylase (Homo sapiens, UniProt P11926); conditions: all three cell lines CT-1, CT-2, HT-29; cited from earlier work
T1 construct: endogenous in cells; host or cells: CT-1, CT-2 and HT-29 colon cell lines

[15] = tested on: MDA-MB231 and MCF-7; conditions: treated breast cancer cells; cited from earlier work
[16] = tested on: cell cycle; conditions: flow cytometric analysis; cited from earlier work
[17] = tested on: P388 leukaemia; conditions: mice; cited from earlier work
[18] = tested on: lewis lung carcinomas; conditions: cited from earlier work
[19] = tested on: Non-small cell lung cancer, breast cancer and melanoma cell lines; conditions: continuous exposure; cited from earlier work
[20] = tested on: human cancer xenografts; conditions: cited from earlier work
[21] = tested on: gastric tumours; conditions: 1.25 mg/kg; cited from earlier work
[22] = tested on: prostate tumour; conditions: 1.25 mg/kg, prostate tumour growth inhibition; cited from earlier work
[23] = Phase I study, 24h continuous infusion every other week: toxicities; type: in vivo, human; conditions: Pat #27, medullary thyroid carcinoma, 6000 µg/m^2 weekly
[24] = 24 hour infusion every 2 weeks, L-carnitine daily
[25] = weekly 1 hour infusion for 3 weeks, 1 week rest
[26] = weekly 24 hour infusion for 3 weeks, 1 week rest

T1 sequence (P11926 whole entry): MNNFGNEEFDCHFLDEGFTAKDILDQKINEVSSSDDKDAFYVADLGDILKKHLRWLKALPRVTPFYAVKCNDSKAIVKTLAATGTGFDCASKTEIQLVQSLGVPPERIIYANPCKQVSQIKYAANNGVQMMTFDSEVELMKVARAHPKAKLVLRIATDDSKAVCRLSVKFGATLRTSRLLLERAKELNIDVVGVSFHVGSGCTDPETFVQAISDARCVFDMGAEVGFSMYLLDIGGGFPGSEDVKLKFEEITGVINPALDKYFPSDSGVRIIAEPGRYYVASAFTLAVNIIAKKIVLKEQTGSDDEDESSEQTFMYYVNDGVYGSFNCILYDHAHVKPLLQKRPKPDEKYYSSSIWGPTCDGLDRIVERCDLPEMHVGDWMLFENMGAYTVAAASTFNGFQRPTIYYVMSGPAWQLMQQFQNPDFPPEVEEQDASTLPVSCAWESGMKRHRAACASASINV

For `CC[C@H](C)[C@H]1NC(=O)[C@@H](NC(=O)[C@@H](CC(C)C)N(C)C(=O)[C@@H]2CCCN2C(=O)C(C)=O)[C@@H](C)OC(=O)[C@H](Cc2ccc(OC)cc2)N(C)C(=O)[C@@H]2CCCN2C(=O)[C@H](CC(C)C)NC(=O)[C@@H](C)C(=O)[C@H](C(C)C)OC(=O)C[C@@H]1O` [aplidine, Dehydrodidemnin B] (Pyruvoyl-P[dNMeL]T[X1]LP[NMeY](Me); ester 3-C), the “expression of the gene (FLT1)” value [1] was “inhibits expression”, the “production of the VEGF protein” value [2] was “severely inhibit production” and the “activity on human bladder cancer” value [3] was “exceedingly high activity”. For the same compound, the dose-limiting toxicity ([4]; 1-hour infusion for 5 consecutive days every 3 weeks) was “Muscular/long lasting emesis”, the dose-limiting toxicity ([4]; 24 hour infusion every 2 weeks) was “Muscular” and the “recommended dose, RD” value ([4]; 24 hour infusion every 2 weeks) was 5000. The dose-limiting toxicity [4, 24] was “Flu-like syndrome”, the “recommended dose, RD” value [4, 24] was 7000 and the dose-limiting toxicity [4, 25] was “Muscular”. The “recommended dose, RD” value [4, 25] was 3250, the dose-limiting toxicity [4, 26] was “Muscular/ hepatic” and the “recommended dose, RD” value [4, 26] was 3750. The RD ([4]; with L-carnitine 0.1 g/kg /day, for Phase II studies) was 7 mg/m^2, the half-life ([5]; in vivo, the 3 patients with clear muscular toxicity, read-out: t ½) was over 44 h and the half-life ([5]; plasma, preliminary compartmental analysis, 24 h infusion, read-out: median half-life, longer terminal phase (converted)) was 25.8 h. The half-life ([5]; plasma, preliminary compartmental analysis, first-order 2-compartment model, read-out: median half-life, rapid initial phase (converted)) was 0.64 h, the half-life ([5]; plasma, quartiles 15.7-35.0, read-out: t ½, median (converted)) was 23.8 h and the PK profile ([5]; within the constraints of the low sample size) was “dose-linear”. The antitumour activity [6] was “noted in patients with NHL and renal carcinoma”, the “delayed onset of myotoxicity, infusions of the drug, median” value ([7]; median) was 4 infusions and the “reversible increases in creatin-kinase (CK)” value ([7]; more severe cases) was at most 3 grade. The “light microscopy of muscle” value ([7]; most biopsied patients) was “just minimal necrosis or no changes at all”, the “doses of aplidine patients were able to tolerate” value [8] was “up to 6000 mcg/m 2” and the inhibited the growth [9] was 17%. For the same compound, the inhibited the growth [10] was 47%, the cytotoxic activity [11] was “dose-dependent cytotoxic activity” and the cytotoxic activity [12] was “dose-dependent cytotoxic activity”. For the same compound, the cytotoxic activity [13] was “dose-dependent cytotoxic activity”, the ornithine decarboxylase activity [14] was “decreased” and the spermidine and spermine [15] was “significant increase”. The cell cycle perturbations [16] was “did not induce any apparent cell cycle periubations”, the “activity against implanted tumour” value [17] was “active” and the optimal dose [17] was 160 micrograms/kg. For the same compound, the “activity in SC implanted lewis lung carcinomas” value [18] was “active”, the “concentrations at which cell lines were sensitive” value [19] was “>= 0.001 micromol/L” and the “treated/control (T/C) tumour ratio” value ([20]; 2.1 mg/kg, near complete remissions in some animals) was 9%. For the same compound, the maximum tolerated dose ([20]; mice bearing human cancer xenografts) was 2.1 mg/kg, the T/C [21] was 14% and the T/C [22] was 25%. For the same compound, the “muscular toxicity (DLT)” value [23] was “symptomatic G3 CPK with G2 muscular pain”.
